For 16 molecules, inhibition and IC50 results are on record in US20240351986A1, “UREA COMPOUND CONTAINING 2-HETEROAROMATIC RING SUBSTITUTION, PREPARATION METHOD THEREFOR AND USE THEREOF” (SHANGHAI INSTITUTE OF MATERIA MEDICA, CHINESE ACADEMY OF …, priority 2021, published 2024).

What all share (format): biochemical
Assay [1] deals with T1, Recombinant human CDK9/cyclin T1 (Homo sapiens, UniProt P50750).
T1 construct: purchased Carna bioscience 04-110
As to the kind of experiment: CDK9 enzyme inhibitory activity (ADP-Glo kinase assay). Particulars: for inhibition at 0.01 µM / inhibition at 0.1 µM: CDK9 enzyme activity, average of two independent repeats; for inhibition at 0.01 µM: compound 10 nM, read-out: Inhibition rate at different concentrations (%) 10 nM; for inhibition at 0.1 µM: compound 100 nM, read-out: Inhibition rate at different concentrations (%) 100 nM; for IC50: Table 2, read-out: CDK9/CycT1 IC50.

The next assay has as its target CDK4/cyclin D1 (Homo sapiens, UniProt P11802). As to the kind of experiment: CDK4 enzyme activity inhibition. The settings on record: for inhibition at 0.01 µM: compound 10 nM, read-out: CDK4/Cyc D1 inhibition rate % 10 nM; for inhibition at 0.1 µM: compound 100 nM, read-out: CDK4/Cyc D1 inhibition rate % 100 nM. Here is the method: (§1) CDK1,4,6,7 enzyme (CDK1/cyclin B, CDK4/cyclin D1, CDK6/cyclin D1, CDK7/cyclin H) activity was measured using a 5 μL enzyme system (50 mM HEPES, 10 mM MgCl2, 1 mM EGTA, 2 mM DTT and 0.0100 Tween 20, appropriate enzyme) either. A mixture of 2.5 μL of compound, 2.5 µL of substrate and ATP (final concentration of substrate 50 nM, final concentration of ATP 200 μM) was incubated at room temperature in the dark for 60 minutes. Then 5 μL EDTA stop solution diluted in 1× detection buffer (final concentration 6 mM) was added to each well, then an antibody diluted in 1× detection buffer (final concentration 2 nM) was added to incubate for 1 hour at room temperature in the dark, and then the corresponding enzyme activity inhibition rate or IC50 was calculated after measurement.

For a further assay, the target named is CDK7/cyclin H (Homo sapiens, UniProt P50613). As to the kind of experiment: CDK7 enzyme activity inhibition. The settings on record: for inhibition at 0.01 µM: compound 10 nM, read-out: CDK7/Cyc H inhibition rate % 10 nM; for inhibition at 0.1 µM: compound 100 nM, read-out: CDK7/Cyc H inhibition rate % 100 nM. The method, then: as §1
CDK7/cyclin H, sequence (P50613 whole entry, species assumed): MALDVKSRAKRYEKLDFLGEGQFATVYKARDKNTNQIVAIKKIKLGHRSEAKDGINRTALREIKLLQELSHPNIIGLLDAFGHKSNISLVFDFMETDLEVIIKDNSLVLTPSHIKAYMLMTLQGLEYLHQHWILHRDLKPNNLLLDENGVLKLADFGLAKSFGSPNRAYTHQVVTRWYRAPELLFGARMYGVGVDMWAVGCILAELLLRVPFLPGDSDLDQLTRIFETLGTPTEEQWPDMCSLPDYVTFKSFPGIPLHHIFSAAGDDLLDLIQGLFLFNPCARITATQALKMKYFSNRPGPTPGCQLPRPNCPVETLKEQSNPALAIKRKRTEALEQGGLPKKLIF
CDK7/cyclin H, sequence (P51946 whole entry partner, species assumed): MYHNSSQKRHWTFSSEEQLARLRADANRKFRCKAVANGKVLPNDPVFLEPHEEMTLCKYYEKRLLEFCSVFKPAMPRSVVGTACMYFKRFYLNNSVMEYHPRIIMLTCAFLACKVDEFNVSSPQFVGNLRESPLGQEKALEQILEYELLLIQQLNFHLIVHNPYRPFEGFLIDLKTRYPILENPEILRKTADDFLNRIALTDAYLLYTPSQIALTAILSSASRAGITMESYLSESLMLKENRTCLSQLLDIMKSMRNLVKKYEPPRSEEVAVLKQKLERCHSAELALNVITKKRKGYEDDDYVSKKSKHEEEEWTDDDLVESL
A further assay addresses CDK6/cyclin D1 (Homo sapiens, UniProt Q00534). As to the kind of experiment: CDK6 enzyme activity inhibition. Particulars: for inhibition at 0.01 µM: compound 10 nM, read-out: CDK6/Cyc D1 inhibition rate % 10 nM; for inhibition at 0.1 µM: compound 100 nM, read-out: CDK6/Cyc D1 inhibition rate % 100 nM. Here is the method: as §1
Another assay has as its target CDK1/cyclin B (Homo sapiens, UniProt P06493). As to the kind of experiment: CDK1 enzyme activity inhibition. Particulars: for inhibition at 0.01 µM: compound 10 nM, read-out: CDK1/Cyc B inhibition rate % 10 nM; for inhibition at 0.1 µM: compound 100 nM, read-out: CDK1/Cyc B inhibition rate % 100 nM. The method, then:
as §1

Where a name gives a salt, the structure may show the parent alone.

CDK4/cyclin D1, sequence (P11802 whole entry, species assumed): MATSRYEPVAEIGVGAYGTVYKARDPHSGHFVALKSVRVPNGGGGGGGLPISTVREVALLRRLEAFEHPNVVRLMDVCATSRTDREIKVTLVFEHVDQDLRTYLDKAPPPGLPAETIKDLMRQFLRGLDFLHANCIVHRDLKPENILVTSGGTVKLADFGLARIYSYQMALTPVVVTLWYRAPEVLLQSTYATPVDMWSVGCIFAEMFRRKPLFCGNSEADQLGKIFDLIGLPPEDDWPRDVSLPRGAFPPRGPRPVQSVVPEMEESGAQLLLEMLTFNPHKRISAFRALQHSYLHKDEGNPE
CDK4/cyclin D1, sequence (P24385 whole entry partner, species assumed): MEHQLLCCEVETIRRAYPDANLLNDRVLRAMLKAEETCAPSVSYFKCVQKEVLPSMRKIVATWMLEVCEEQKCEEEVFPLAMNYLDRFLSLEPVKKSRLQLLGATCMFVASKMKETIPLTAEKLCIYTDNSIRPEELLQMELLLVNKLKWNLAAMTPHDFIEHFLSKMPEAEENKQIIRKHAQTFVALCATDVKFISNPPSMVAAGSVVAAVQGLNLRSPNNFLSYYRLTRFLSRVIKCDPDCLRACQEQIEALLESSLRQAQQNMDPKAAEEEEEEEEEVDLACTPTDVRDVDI
CDK1/cyclin B, sequence (P06493 whole entry, species assumed): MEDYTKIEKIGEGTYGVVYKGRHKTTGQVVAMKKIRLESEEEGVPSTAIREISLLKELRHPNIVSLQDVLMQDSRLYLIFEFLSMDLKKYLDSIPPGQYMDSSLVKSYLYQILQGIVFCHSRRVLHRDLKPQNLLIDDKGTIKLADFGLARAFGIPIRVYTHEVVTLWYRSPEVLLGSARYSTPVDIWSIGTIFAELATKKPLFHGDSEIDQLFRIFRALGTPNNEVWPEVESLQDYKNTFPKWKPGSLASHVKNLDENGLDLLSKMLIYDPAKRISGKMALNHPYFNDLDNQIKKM
CDK1/cyclin B, sequence (P14635 whole entry partner, species assumed): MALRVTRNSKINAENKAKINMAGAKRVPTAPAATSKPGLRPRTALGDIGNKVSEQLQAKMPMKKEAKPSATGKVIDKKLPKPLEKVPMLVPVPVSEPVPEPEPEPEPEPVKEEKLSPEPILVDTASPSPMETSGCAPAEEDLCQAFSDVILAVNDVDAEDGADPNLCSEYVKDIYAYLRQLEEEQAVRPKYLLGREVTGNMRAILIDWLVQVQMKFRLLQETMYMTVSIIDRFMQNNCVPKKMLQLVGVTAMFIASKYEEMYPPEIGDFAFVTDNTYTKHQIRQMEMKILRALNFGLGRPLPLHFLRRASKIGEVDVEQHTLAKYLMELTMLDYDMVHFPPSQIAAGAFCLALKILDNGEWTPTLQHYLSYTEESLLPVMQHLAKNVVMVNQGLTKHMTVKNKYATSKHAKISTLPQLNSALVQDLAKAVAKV
CDK6/cyclin D1, sequence (Q00534 whole entry, species assumed): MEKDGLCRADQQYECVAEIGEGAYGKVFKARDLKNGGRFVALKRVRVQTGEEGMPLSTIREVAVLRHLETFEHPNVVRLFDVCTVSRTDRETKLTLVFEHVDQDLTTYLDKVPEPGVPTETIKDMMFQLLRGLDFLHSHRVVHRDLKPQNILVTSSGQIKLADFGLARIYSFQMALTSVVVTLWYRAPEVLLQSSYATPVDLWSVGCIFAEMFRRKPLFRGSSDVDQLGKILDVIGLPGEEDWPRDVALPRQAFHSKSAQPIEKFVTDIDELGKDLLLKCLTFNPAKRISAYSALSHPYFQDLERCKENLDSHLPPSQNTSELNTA
CDK6/cyclin D1, sequence (P24385 whole entry partner, species assumed): as the sequence (P24385 whole entry partner, species assumed) above
T1 sequence (P50750 whole entry): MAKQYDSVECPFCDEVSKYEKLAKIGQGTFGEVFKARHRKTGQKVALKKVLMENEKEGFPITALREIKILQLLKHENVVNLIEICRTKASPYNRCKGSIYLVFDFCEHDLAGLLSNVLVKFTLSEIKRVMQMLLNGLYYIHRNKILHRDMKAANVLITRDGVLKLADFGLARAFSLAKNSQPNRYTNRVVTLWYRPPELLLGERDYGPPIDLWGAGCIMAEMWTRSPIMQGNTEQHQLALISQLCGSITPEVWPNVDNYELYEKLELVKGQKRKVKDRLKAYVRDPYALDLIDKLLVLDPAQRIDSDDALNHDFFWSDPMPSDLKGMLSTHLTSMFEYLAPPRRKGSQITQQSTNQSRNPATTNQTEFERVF
T1 sequence (O60563 whole entry partner): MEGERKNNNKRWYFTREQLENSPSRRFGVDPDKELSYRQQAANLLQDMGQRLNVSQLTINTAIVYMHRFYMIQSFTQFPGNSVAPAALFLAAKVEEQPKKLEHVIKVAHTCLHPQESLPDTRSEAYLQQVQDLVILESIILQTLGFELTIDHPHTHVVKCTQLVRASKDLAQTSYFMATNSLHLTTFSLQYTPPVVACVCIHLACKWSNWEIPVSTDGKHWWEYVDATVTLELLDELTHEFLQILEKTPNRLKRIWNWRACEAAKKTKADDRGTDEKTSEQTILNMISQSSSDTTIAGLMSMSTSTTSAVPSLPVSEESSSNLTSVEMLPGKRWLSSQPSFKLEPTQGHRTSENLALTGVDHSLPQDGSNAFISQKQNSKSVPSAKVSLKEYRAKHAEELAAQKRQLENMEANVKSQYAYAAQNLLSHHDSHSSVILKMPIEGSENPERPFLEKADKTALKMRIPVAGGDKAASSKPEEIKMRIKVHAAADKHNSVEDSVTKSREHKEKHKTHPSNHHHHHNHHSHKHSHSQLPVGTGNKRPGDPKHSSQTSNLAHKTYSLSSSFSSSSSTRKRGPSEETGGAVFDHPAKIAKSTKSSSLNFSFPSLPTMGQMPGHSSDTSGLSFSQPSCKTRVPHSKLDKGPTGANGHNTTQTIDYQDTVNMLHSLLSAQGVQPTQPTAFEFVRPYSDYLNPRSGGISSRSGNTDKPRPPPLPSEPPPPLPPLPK

Turning to `COc1cc(F)ccc1-c1ccnc(NC(=O)N[C@H]2CC[C@H](N)CC2)c1` [Example 2, 1-((1r,4r)-4-aminocyclohexyl)-3-(4-(4-fluoro-2-methoxyphenyl)pyridin-2-yl)urea], the inhibition at 0.01 µM in assay [1] was 57%; at CDK4/cyclin D1 it was -7%; on CDK7/cyclin H it was -6.6%; at CDK6/cyclin D1, 2.6%; on CDK1/cyclin B it was 1.3%. The inhibition at 0.1 µM in assay [1] is 88%; at CDK4/cyclin D1 it was 1.8%; on CDK7/cyclin H it was -3.8%; at CDK6/cyclin D1, 13.8%; on CDK1/cyclin B, 7.8%. In addition, the IC50 in assay [1] came to 5.7 nM.

As for `COCCN[C@H]1CC[C@H](NC(=O)Nc2cc(-c3ccc(F)cc3OC)ccn2)CC1` [Example 3, 1-(4-(4-fluoro-2-methoxyphenyl)pyridin-2-yl)-3-((1r,4r)-4-((2-methoxyethyl)amino)cyclohexyl) urea], the inhibition at 0.01 µM in assay [1] is 50.2%; at CDK4/cyclin D1, 7.2%; on CDK7/cyclin H, -24.5%; on CDK6/cyclin D1, 9.9%; at CDK1/cyclin B, -1.9%. Also, the inhibition at 0.1 µM is 96.7% in assay [1]; 25.1% on CDK4/cyclin D1; -2.6% at CDK7/cyclin H; 18.9% at CDK6/cyclin D1; -1.4% on CDK1/cyclin B. The IC50 in assay [1] was 6.2 nM.

Turning to `CC(=O)N[C@H]1CC[C@@H](NC(=O)Nc2cc(-c3cnn4c3CC(C)(C)C4)c(Cl)cn2)CC1` [Example 67, N-((1s,4s)-4-(3-(5-chloro-4-(5,5-dimethyl-5,6-dihydro-4H-pyrrolo[1,2-b]pyrazol-3-yl)pyridin-2-yl)ureido)cyclohexyl)acetamide], the inhibition at 0.01 µM in assay [1] is 68%; on CDK4/cyclin D1, 9.5%; on CDK7/cyclin H it was -4%; at CDK6/cyclin D1, 4%; at CDK1/cyclin B, 4.7%. The inhibition at 0.1 µM in assay [1] was 85%; on CDK4/cyclin D1, 18%; on CDK7/cyclin H, 44%; at CDK6/cyclin D1, 19.1%; on CDK1/cyclin B it was 47.4%. For the same molecule, the IC50 in assay [1] came to 5.3 nM.

Consider `COCCNC1CCCC(NC(=O)Nc2cc(-c3cnn4c3CC(C)(C)C4)c(Cl)cn2)C1` (centres unmarked) [Example 80, 1-(5-chloro-4-(5,5-dimethyl-5,6-dihydro-4H-pyrrolo[1,2-b]pyrazol-3-yl)pyridin-2-yl)-3-(3-((2-methoxyethyl)amino)cyclohexyl)urea], for which, in assay [1], the inhibition at 0.01 µM was found to be 48% and the inhibition at 0.1 µM is 56%.

As to `CC(=O)NC1CCC(NC(=O)Nc2cc(-c3cnn4c3CC3(CC3)C4)c(Cl)cn2)CC1` (centres unmarked) [Example 81, N-((1r,4r)-4-(3-(5-chloro-4-(4′H,6′H-spiro[cyclopropane-1,5′-pyrrolo[1,2-b]pyrazole]-3′-yl)pyridin-2-yl)ureido)cyclohexyl)acetamide], in assay [1], the inhibition at 0.01 µM was determined as 58.3% and the inhibition at 0.1 µM came out at 91.5%.

Turning to `CC(=O)NC1CCC(NC(=O)Nc2cc(-c3cnn4c3COCC4)c(Cl)cn2)CC1` (centres unmarked) [Example 82, N-((1r,4r)-4-(3-(5-chloro-4-(6,7-dihydro-4H-pyrazolo[5,1-c][1,4]oxazine-3-yl)pyridin-2-yl)ureido)cyclohexyl)acetamide], in assay [1], the inhibition at 0.01 µM worked out at 38% and the inhibition at 0.1 µM came out at 79.2%.

As for `CC(=O)NC1CCC(NC(=O)Nc2cc(-c3cnn4c3CN(C)CC4)c(Cl)cn2)CC1` (centres unmarked) [Example 83, N-((1r,4r)-4-(3-(5-chloro-4-(5-methyl-4,5,6,7-tetrahydropyrazolo[1,5-a]pyrazin-3-yl)pyridin-2-yl)ureido)cyclohexyl)acetamide], in assay [1], the inhibition at 0.01 µM was found to be 40.2% and the inhibition at 0.1 µM came to 68.3%.

Take `CC(=O)NC1CCC(NC(=O)Nc2cc(-c3cnn4c3CCC4)c(Cl)cn2)CC1` (centres unmarked) [Example 84, N-((1r,4r)-4-(3-(5-chloro-4-(5,6-dihydro-4H-pyrrolo[1,2-b]pyrazol-3-yl)pyridin-2-yl)ureido)cyclohexyl)acetamide]: in assay [1], the inhibition at 0.01 µM worked out at 39.5% and the inhibition at 0.1 µM was 66.3%.

As for `CC(=O)NC1CCC(NC(=O)Nc2cc(-c3cnc(C)n3C(C)C)c(Cl)cn2)CC1` (centres unmarked) [Example 85, N-((1r,4r)-4-(3-(5-chloro-4-(1-isopropyl-2-methyl-1H-imidazol-5-yl)pyridin-2-yl)ureido)cyclohexyl)acetamide], in assay [1], the inhibition at 0.01 µM was found to be 28.9% and the inhibition at 0.1 µM was 72%.

Consider `CC(=O)NC1CCC(NC(=O)Nc2cc(-c3cnc4n3CC(C)(C)C4)c(Cl)cn2)CC1` (centres unmarked) [Example 86, N-((1r,4r)-4-(3-(5-chloro-4-(6,6-dimethyl-6,7-dihydro-5H-pyrrolo [1,2-a]imidazol-3-)pyridin-2-yl)ureido)cyclohexyl)acetamide], for which, in assay [1], the inhibition at 0.01 µM came to 50.1% and the inhibition at 0.1 µM was 88.3%.

On to `CC(=O)NC1CCC(NC(=O)Nc2cc(-n3cnc(C4CC4)c3)c(Cl)cn2)CC1` (centres unmarked) [Example 87, N-((1r,4r)-4-(3-(5-chloro-4-(4-cyclopropyl-1H-imidazol-1-yl)pyridin-2-yl)ureido)cyclohexyl)acetamide], for which, in assay [1], the inhibition at 0.01 µM stood at 43.8% and the inhibition at 0.1 µM turned out to be 75.3%.

Turning to `CNC1CCC(NC(=O)Nc2cc(-c3cnn4c3CC(C)(C)C4)c(Cl)cn2)CC1` (centres unmarked) [Example 88, 1-(5-chloro-4-(5,5-dimethyl-5,6-dihydro-4H-pyrrolo[1,2-b]pyrazol-3-yl)pyridin-2-yl)-3-((1r,4r)-4-(methylamino)cyclohexyl)urea], in assay [1], the inhibition at 0.01 µM stood at 55.7% and the inhibition at 0.1 µM is 94.2%.

`CN(C)C1CCC(NC(=O)Nc2cc(-c3cnn4c3CC(C)(C)C4)c(Cl)cn2)CC1` (centres unmarked) [Example 89, 1-(5-chloro-4-(5,5-dimethyl-5,6-dihydro-4H-pyrrolo[1,2-b]pyrazol-3-yl)pyridin-2-yl)-3-((1r,4r)-4-(dimethylamino)cyclohexyl)urea]: in assay [1], the inhibition at 0.01 µM was 63.7% and the inhibition at 0.1 µM stood at 92.7%.

Regarding `COCCN(C)C1CCC(NC(=O)Nc2cc(-c3cnn4c3CC(C)(C)C4)c(Cl)cn2)CC1` (centres unmarked) [Example 90, 1-(5-chloro-4-(5,5-dimethyl-5,6-dihydro-4H-pyrrolo[1,2-b]pyrazol-3-yl)pyridin-2-yl)-3-((1r,4r)-4-((2-methoxyethyl)(methyl)amino)cyclohexyl)urea], in assay [1], the inhibition at 0.01 µM was 61% and the inhibition at 0.1 µM amounted to 98%.

Turning to `COCC[N+](C)(C)C1CCC(NC(=O)Nc2cc(-c3cnn4c3CC(C)(C)C4)c(Cl)cn2)CC1` (centres unmarked) [Example 91, (1r,4r)-4-(3-(5-chloro-4-(5,5-dimethyl-5,6-dihydro-4H-pyrrolo[1,2-b]pyrazol-3-yl)pyridin-2-yl)ureido)-N-(2-methoxyethyl)-N,N-dimethylcyclohexyl-1-ammonium salt], in assay [1], the inhibition at 0.01 µM is 63% and the inhibition at 0.1 µM was found to be 88%.

Take `CC1(C)Cc2c(-c3cc(NC(=O)NC4CCC(N5CCOCC5)CC4)ncc3Cl)cnn2C1` (centres unmarked) [Example 92, 1-(5-chloro-4-(5,5-dimethyl-5,6-dihydro-4H-pyrrolo[1,2-b]pyrazol-3-yl)pyridin-2-yl)-3-((1r, 4r)-4-morpholinylcyclohexyl)urea]: in assay [1], the inhibition at 0.01 µM was determined as 58.9% and the inhibition at 0.1 µM is 93.7%.
